Data set [1] in a line: iron binding efficiency, logK(β110). The class given is physicochemical. The conditions noted are these: one metal, one ligand, no protons. From the text:
(§1) The binding efficiencies may be expressed as a binding constant. A binding constant (also called formation constant or stability constant) is an equilibrium constant for the formation of a complex in solution. It is a measure of the strength of the interaction between the reagents that come together to form the complex. As an example, various stains may comprise catechins as shown in Formula 13.
(§2) The chelating agent(s) according to various embodiments may, therefore, be selected to ensure a lower binding efficiency with calcium and a higher binding efficiency with iron at the wash pH.
(§3) In Table 1, the reaction between metals and ligands is described in terms of logK(β110). In this context, K, is the equilibrium constant for the reaction between ligands and metals. The higher K, the more metal is bound. This is illustrated in the following example.
(§4) β, represents the binding efficiency and receives some subscripts (βmlh) to indicate how many metals (m), ligands (l), and protons (h) respectively are involved.

Data set [2] is described as follows: pKa of chelating agents and catechin (Table 1). The class given is physicochemical. The source says:
Chelation is a type of bonding of ions and molecules to metal ions. It involves the formation or presence of two or more separate coordinate bonds between a ligand and a metal atom. Without being bound by theory, the stain removal effectiveness of a composition comprising one or more chelating agents may depend at least in part on the ability of the chelating agent(s) to bind to iron, which may be present in some stains, such as fruit or beverage stains. Several factors may impact a chelating agent's ability to bind to iron. These factors may include the pKa of the chelating agent compared to the wash pH, and the affinity of the chelating agent to bind with other metals, materials, or compositions in the wash.
Various embodiments may provide or employ a composition that comprises one or more chelating agents having a pKa that is less than the wash pH.

Data set [3] in a line: calcium binding efficiency, logK(β110). In kind it is physicochemical. The conditions noted are these: one metal, one ligand, no protons.
From the text: as §1, §2, §3, §4

Data set [4] in a line: Example 3 stain removal in tergotometer wash, synthetic fabric. The conditions noted are these: polyester, vs HEDP. From the text:
Image analysis may be used to compare each stain to an unstained fabric control. Software may be used to convert images taken into standard colorimetric values and to compare these to standards based on the commonly used Macbeth Color Rendition Chart, assigning each stain a colorimetric value (Stain Level). The CIELAB color space, also referred to as L*a*b*, is a color space defined by the International Commission on Illumination (abbreviated CIE) in 1976.[a] It expresses color as three values: L* for perceptual lightness and a* and b* for the four unique colors of human vision: red, green, blue and yellow. The lightness value, L* defines black at 0 and white at 100. The a* axis is relative to the green-magenta opponent colors, with negative values toward green and positive values toward magenta. The b* axis represents the blue-yellow opponents, with negative numbers toward blue and positive toward yellow. In the following examples, various fabrics were analyzed using commercially available image analysis software for L*a*b* values. SRI values were then calculated from the L*a*b* values using the formula shown. The higher the SRI, the better the stain removal. […]

Data set [5] can be described thus: Example 1 stain removal in tergotometer wash, unit dose compositions at pH 7.0/8.5/10.0. Conditions: treatments with pH<10.0; tropolone compared to HEDP or no chelating agent. From the text:
Image analysis may be used to compare each stain to an unstained fabric control. Software may be used to convert images taken into standard colorimetric values and to compare these to standards based on the commonly used Macbeth Color Rendition Chart, assigning each stain a colorimetric value (Stain Level). The CIELAB color space, also referred to as L*a*b*, is a color space defined by the International Commission on Illumination (abbreviated CIE) in 1976.[a] It expresses color as three values: L* for perceptual lightness and a* and b* for the four unique colors of human vision: red, green, blue and yellow. The lightness value, L* defines black at 0 and white at 100. The a* axis is relative to the green-magenta opponent colors, with negative values toward green and positive values toward magenta. The b* axis represents the blue-yellow opponents, with negative numbers toward blue and positive toward yellow. In the following examples, various fabrics were analyzed using commercially available image analysis software for L*a*b* values. SRI values were then calculated from the L*a*b* values using the formula shown. The higher the SRI, the better the stain removal. […] One dose of detergent treatment, as detailed in Table 3 below, was added to a tergotometer and was evaluated using the Washing Method.

The term pKa denotes the pH at which an ionisable group is half protonated. As to `Oc1cc(O)c2c(c1)OC(c1ccc(O)c(O)c1)C(O)C2` (stereo not shown) [Catechin], the “Fe (III) logK(β110)” value was 19.2 in data set [1] and “about 19.2” in data set [1] (listed as catechins). Further, the pKa is reported as 13.4 in data set [2] (fourth listed pKa), 9.5 in data set [2] (second listed pKa) and 11.2 in data set [2] (third listed pKa). For the same molecule, the “Ca^2+ logK(β110)” value in data set [3] is reported as 3.5; in data set [3] (listed as catechins), “about 3.5”.
`CC(C)c1cccc(=O)c(O)c1` [Hinokitiol, 2-Hydroxy-6-(propan-2-yl)cyclohepta-2,4,6-trien-1-one]: the “Fe (III) logK(β110)” value in data set [1] is 12.9. For the same molecule, the pKa result in data set [2] (first listed pKa) is on record as “about 7”. The “stain removal on synthetics fabric (in words)” value in data set [4] is reported as “significantly improved stain removal”. The “Ca^2+ logK(β110)” value in data set [3] is listed as 2.2. In data set [5], the “stain removal performance (in words)” value is “improved stain removal performance”.
`CC(O)(P(=O)(O)O)P(=O)(O)O` [HEDP, 1-Hydroxyethylidene-1,1-diphosphonic acid]: in data set [1], the “Fe (III) logK(β110)” value is recorded as 14.1. For the same molecule, the pKa in data set [2] (first listed pKa) turned out to be 1.7; in data set [2] (fourth listed pKa), 10.3; in data set [2] (second listed pKa), 2.5; in data set [2] (third listed pKa), 7.3. Moreover, in data set [3], the “Ca^2+ logK(β110)” value turned out to be 6.8.
In the case of `O=c1cccccc1O` [Tropolone, 2-Hydroxycyclohepta-2,4,6-trien-1-one], the “Fe (III) logK(β110)” value in data set [1] stood at 10.5. The “stain removal on synthetics fabric (in words)” value in data set [4] is “significantly improved stain removal”. For the same molecule, the “Ca^2+ logK(β110)” value in data set [3] is 3.1. Also, in data set [5], the “stain removal performance (in words)” value is “improved stain removal performance”.

The record behind these values is patent US20250011687A1, “BIODEGRADABLE CHELATING AGENTS AND METHODS FOR FABRIC CARE” (The Procter & Gamble Company, priority 2023, published 2025).
